Measurements from patent US20180280429A1, “APPLICATION OF NITRATE IN PREPARATION OF DRUG PREVENTING OR TREATING BONE METABOLIC DISEASES” (Capital Medical University, priority 2015, published 2018).

Tests used:
ovariectomized rats [1] = assay: Bone density detection by Micro-CT of the upper tibia in the ovariectomized rat osteoporosis model; type: in vivo, SD rats; conditions: OVX rats, 12 weeks, vs OVX group
ovariectomized rats [2] = assay: Tibia weight, body weight and adverse reactions in ovariectomized rats; type: in vivo, SD rats; conditions: OVX rats
Source text: (§1) 12-week-old female SD rats were selected for the osteoporosis model and bilateral ovaries of them were removed. The experiment objects were divided into 3 groups: the sham operation group (Sham), the ovariectomized group (OVX) and the nitrate group (Nitrate), and there were 10 rats in each group. In the nitrate group, drinking water with sodium nitrate was given on the second day after ovariectomy (ovarianectomy) at a concentration of 2.5 mmol/L, and the daily intake of nitrate in each rat was about 0.5 mmol/Kg bw, the water with nitrate was given for 12 weeks, while normal drinking water was given in the other groups.

[3] = Measurement of nitrate and nitrite in serum (Griess); type: in vivo, SD rats; conditions: after drinking water containing nitrate for 3 months, *p<0.05
Source text: as §1
(1) Preparation of the standard: the double dilution of the original standard was 200 μM-3.125 μM
(2) Determination of Nitrite Concentration:
1) Adding 50 μl reaction buffer to blank holes;
2) Adding 50 μl sample or standard to reaction buffer;
3) Adding 50 μl of reaction buffer to each hole in sequence;
4) Adding 50 μl of Griess Reagent I in each hole in sequence;
5) Adding 50 μl of Griess Reagent II to each hole and incubating at room temperature for 10 minutes;
6) Reading the OD value at 540 nm with a microplate reader and the value at 690 nm is used as calibration.
(3) Determination of Nitrate Concentration: […]
7) Reading the OD value at 540 nm with a microplate reader and the value at 690 nm is used as calibration.

[4] = test system: regulatory T lymphocytes (Treg); assay: Detection of the peripheral blood regulatory T cell ratio by flow cytometry; type: in vivo, SD rats; conditions: OVX rats, drinking water with nitrate, 12 weeks, vs OVX group, *P<0.05
Source text: as §1
(1) The Detection of the Peripheral Blood Regulatory T Cell Ratio in the Rats
1) Blood was collected from the abdominal aorta of the rats in each group and the serum was collected.
2) 100 μl 0.1% BSA is added for resuspending, and then Anti-CD4, Anti-CD25 are added for incubating on ice for 30 minutes while avoiding light.
3) The obtained mixture is centrifuged at 1500 rpm for 10 minutes, and then the supernatant is removed and 0.1% BSA is added for resuspending.
4) The membrane-permeation solution is added on 4° C., 10 minutes.
5) The obtained mixture is centrifuged at 1500 rpm for 10 minutes, and then the supernatant is removed and 0.1% BSA is added for resuspending.
6) Anti-Foxp3 is added for incubating on ice for 30 minutes while avoiding light. […]

TGF-β1, IFN-γ and IL-17 = assay: Detection of TGF-β1, IFN-γ and IL-17 in serum; type: in vivo, SD rats; conditions: OVX rats, drinking water with nitrate, 12 weeks, vs OVX group, *P<0.05
Source text: as §1
(2) Detection of TGF-β1, IFN-γ and IL-17
1) The serum is diluted for 10 times, and 0.1 ml of which is placed into the 96-well plate of the kit. At the same time, the standard in the kit is taken and diluted in proportion, and then placed into the 96-well plate and incubated at 37° C./at room temperature for 30 minutes/1 hour according to the instructions. The obtained object is washed with a buffer for 3 times and each time lasts for 3 minutes.
2) 100 μl enzyme-labeled antibody is added for incubating for 15 minutes/30 minutes at 37° C./at room temperature. The obtained object is washed for 3 times and each time lasts for 3 minutes.
3) 100 μl substrate solution is added and then incubated for 15 minutes at room temperature/37° C.
4) 100 μl stop solution is added to stop the reaction for 5 minutes.
5) The readings of the enzyme labeled instrument at 450 nm is obtained.

[5] = test system: BMMSCs of ovariectomized rats; assay: BMMSC proliferation by the CCK8 method (cells cultured from treated rats); type: cell-based, SD rats; conditions: third generation cells from OVX rats given drinking water with nitrate, vs OVX group, *P<0.05
Source text: as §1
(§2) After necropsy, the skin of the hind limbs was removed. After exposing the femur and tibia, the bone marrow was extracted with a 1 mL syringe to flush out from the stump. Cells were cultured in the α-MEM complete medium (containing 10% of bovine serum), and subcultured after the cells were clonally grown until 80% of the fusion.
100 μl of cell suspension was inoculated in the 96-well plate, and the plate was pre-cultured in the incubator for 24 hours (under the condition of 37° C., 5% CO2). Then the plate was incubated in an incubator for 72 hours. 100 μl of culture medium was added to each well and 10 μl of CCK-8 solution was added to each hole. After 2 hours, the absorbance at 450 nm was measured with an enzyme labeled instrument.

[6] = test system: BMMSCs of ovariectomized rats; assay: BMMSC osteogenic differentiation, alizarin red staining (cells cultured from treated rats); type: cell-based, SD rats; conditions: BMMSC from OVX rats given drinking water with nitrate, after 21 days of osteogenesis induction, vs OVX group, *P<0.05
Source text: as §1, §2
Preparation of osteoinductive medium: adding 2 mmol/L glutamine, 100 U/ml penicillin and 100 μg/ml streptomycin, 10 mM β-glycerophosphate sodium, and 10 nM Dexamethasone and 50 mg/L vitamin C to 10% fetal bovine serum α-MEM medium. […]

[7] = sodium nitrate 2.5 mmol/L in drinking water, *P<0.05

For O=[N+]([O-])[O-].[Na+] [nitrate, sodium nitrate], the “loss of tibial bone mass (MicroCT of the upper tibia, FIG. 1B)” value (ovariectomized rats [1]; sodium nitrate 2.5 mmol/L in drinking water (about 0.5 mmol/Kg bw daily)) was “significantly relieved”, the “bone density (BMD), MicroCT quantitative analysis (FIG. 1C)” value (ovariectomized rats [1]; [7]) was “partially recover” and the “bone volume fraction (BV/TV), MicroCT quantitative analysis (FIG. 1D)” value (ovariectomized rats [1]; [7]) was “partially recover”. The “trabecular number (Tb.N), MicroCT quantitative analysis (FIG. 1F)” value (ovariectomized rats [1]; [7]) was “partially recover”, the “trabecular thickness (Tb.Th), MicroCT quantitative analysis (FIG. 1E)” value (ovariectomized rats [1]; [7]) was “partially recover” and the adverse reactions (ovariectomized rats [2]; nitrate in drinking water, at the time of preservation of bone mass) was “no obvious adverse reactions”. For the same compound, the “body weight (weight gain) (FIG. 2B)” value (ovariectomized rats [2]; sodium nitrate 2.5 mmol/L in drinking water, 12 weeks) was “no significant effect on the weight gain”, the “tibia weight (FIG. 2A)” value (ovariectomized rats [2]; sodium nitrate 2.5 mmol/L in drinking water, 12 weeks, vs OVX group) was “relieve the decrease of tibia weight” and the “content of nitrate in serum (FIG. 3A)” value [3] was “significantly increased”. The “content of nitrite in serum (FIG. 3B)” value [3] was “significantly increased”, the “proportion of regulatory T lymphocytes in peripheral blood CD4 positive cells (FIG. 4A)” value [4] was “reduce the decline” and the “level of IFN-γ in serum (FIG. 4C)” value (TGF-β1, IFN-γ and IL-17) was “alleviate the up-regulation”. For the same compound, the “level of IL-17 in serum (FIG. 4D)” value (TGF-β1, IFN-γ and IL-17) was “alleviate the up-regulation”, the “level of TGF-β1 in serum (FIG. 4B)” value (TGF-β1, IFN-γ and IL-17) was “alleviate the down-regulation” and the “proliferation of BMMSCs, OD450 value by CCK8 (FIG. 5A)” value [5] was “significantly reduced the proliferation”. For the same compound, the “osteogenic differentiation of BMMSCs, alizarin red staining and quantification (FIG. 5B)” value [6] was “significantly enhanced osteogenic differentiation”.
